Results as given in article PMC6478789, “A chemical toolbox for the study of bromodomains and epigenetic signaling” (Nature Communications, 2019).
Like-named read-outs stand apart in the source and are kept apart here.

Assays:
PRMT8 = target: T1, PRMT8 (Homo sapiens, UniProt Q9NR22); experiment: Methyl transferase scintillation proximity assay; type: biochemical; conditions: average of two measurements; for inhibition at 10 µM: read-out: MTases Inhibition (%)
T1 construct: purchased DiscoverX BROMOscan (bromodomains); SGC in-house methyltransferase panel
T1 sequence (Q9NR22 whole entry): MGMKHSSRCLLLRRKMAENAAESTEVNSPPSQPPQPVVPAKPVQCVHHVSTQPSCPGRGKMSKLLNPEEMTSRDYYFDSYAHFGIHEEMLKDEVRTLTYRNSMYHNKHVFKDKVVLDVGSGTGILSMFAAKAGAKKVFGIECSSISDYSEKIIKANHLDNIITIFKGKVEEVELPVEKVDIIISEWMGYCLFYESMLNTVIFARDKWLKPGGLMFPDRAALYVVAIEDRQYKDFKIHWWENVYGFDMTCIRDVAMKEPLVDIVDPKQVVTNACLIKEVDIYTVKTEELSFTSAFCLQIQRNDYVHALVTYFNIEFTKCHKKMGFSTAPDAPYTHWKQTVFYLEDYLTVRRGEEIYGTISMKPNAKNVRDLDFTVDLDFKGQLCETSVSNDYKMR
Experimental: Assays measuring lysine and arginine methyl transferase activity have been described in Scheer et al.. A radioactivity-based scintillation proximity assay was used to monitor incorporation of a tritium-labeled methyl group into the biotinylated substrate of the methyl transferase. A 10-μl reaction containing ^3H-SAM and substrate at concentrations close to the apparent Km values for each enzyme was prepared. The reactions were quenched with 10 μl of 7.5 M guanidine hydrochloride; 180 μl of 20 mM Tris buffer (pH 8.0) were added; and the mixture was transferred to a 96-well FlashPlate and incubated for 1 h. The counts per minute (CPM) was measured on a TopCount plate reader. The CPM in the absence of compound or enzyme was defined as 100% activity and background (0%), respectively, for each dataset.

BRPF1 = BRPF1 (Homo sapiens, UniProt P55201); experiment: Temperature shift assay (non-BRD reader domains); type: binding; conditions: 10µM compound
Sequence of BRPF1 (P55201 1085-1168 limits assumed, species assumed): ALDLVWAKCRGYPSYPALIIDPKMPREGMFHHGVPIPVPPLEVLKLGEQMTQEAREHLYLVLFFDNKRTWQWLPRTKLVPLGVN

GCN5L2 = target: T2, GCN5L2 (Homo sapiens, UniProt Q92830); experiment: BROMOscan ligand-binding assay
T2 sequence (Q92830 728-832 limits assumed): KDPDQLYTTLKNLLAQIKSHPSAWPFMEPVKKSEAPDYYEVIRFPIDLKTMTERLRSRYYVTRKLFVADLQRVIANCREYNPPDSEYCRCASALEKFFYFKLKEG
Source text: (§1) BROMOscan is a binding assay based on the well-known KINOMEscan technology. This assay measures the binding of a DNA-tagged bromodomain to an immobilized BRD ligand. If an inhibitor is present, it will compete with the bromodomain binding to the immobilized ligand, resulting in reduction of a quantitative PCR (qPCR) signal in a dose-dependent manner.

WDR9(2) = WDR9(2) (Homo sapiens, UniProt Q9NSI6); experiment: BROMOscan ligand-binding assay
Sequence of WDR9(2) (Q9NSI6 1313-1418 limits assumed): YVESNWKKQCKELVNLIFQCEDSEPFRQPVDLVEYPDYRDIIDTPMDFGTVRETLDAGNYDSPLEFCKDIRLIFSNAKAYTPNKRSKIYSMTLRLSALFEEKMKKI
Source text: as §1

PCAF = target: T3, PCAF (Homo sapiens, UniProt Q92831); experiment: BROMOscan ligand-binding assay
T3 sequence (Q92831 723-827 limits assumed): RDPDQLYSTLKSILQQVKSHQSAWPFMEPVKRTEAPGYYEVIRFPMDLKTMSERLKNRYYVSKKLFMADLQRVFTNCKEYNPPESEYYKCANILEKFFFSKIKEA
Source text: as §1

ATAD2B = target: T4, ATAD2B (Homo sapiens, UniProt Q9ULI0); experiment: BROMOscan ligand-binding assay
T4 sequence (Q9ULI0 951-1066 limits assumed): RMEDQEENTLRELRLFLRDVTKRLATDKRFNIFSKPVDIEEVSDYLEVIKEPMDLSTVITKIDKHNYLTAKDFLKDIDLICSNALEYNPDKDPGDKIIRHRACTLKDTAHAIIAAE
Source text: as §1

BRD4(1,2) = BRD4(1,2) (Homo sapiens, UniProt O60885); experiment: BROMOscan ligand-binding assay
Source text: as §1

EP300 = target: T5, EP300 (Homo sapiens, UniProt Q09472); experiment: BROMOscan ligand-binding assay
T5 sequence (Q09472 1049-1156 limits assumed): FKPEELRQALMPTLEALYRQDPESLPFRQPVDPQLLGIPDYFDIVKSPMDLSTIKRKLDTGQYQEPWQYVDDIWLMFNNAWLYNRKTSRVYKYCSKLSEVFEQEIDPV
Source text: as §1

FALZ = FALZ (Homo sapiens, UniProt Q12830); experiment: BROMOscan ligand-binding assay
Source text: as §1

PBRM1(2) = PBRM1(2) (Homo sapiens, UniProt Q86U86); experiment: BROMOscan ligand-binding assay
Sequence of PBRM1(2) (Q86U86 177-287 limits assumed): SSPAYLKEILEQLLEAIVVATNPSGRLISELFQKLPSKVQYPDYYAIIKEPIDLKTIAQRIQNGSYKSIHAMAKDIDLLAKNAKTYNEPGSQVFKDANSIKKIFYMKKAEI
Source text: as §1

BRD3(1) = BRD3(1) (Homo sapiens, UniProt Q15059); experiment: BROMOscan ligand-binding assay
Sequence of BRD3(1) (Q15059 34-140 limits assumed): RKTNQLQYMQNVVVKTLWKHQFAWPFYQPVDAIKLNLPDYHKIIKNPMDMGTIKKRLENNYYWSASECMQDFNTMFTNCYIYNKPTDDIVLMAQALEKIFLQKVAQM
Source text: as §1

SMARCA2 = SMARCA2 (Homo sapiens, UniProt P51531); experiment: BROMOscan ligand-binding assay
Sequence of SMARCA2 (P51531 1-1572 isoform P51531-2): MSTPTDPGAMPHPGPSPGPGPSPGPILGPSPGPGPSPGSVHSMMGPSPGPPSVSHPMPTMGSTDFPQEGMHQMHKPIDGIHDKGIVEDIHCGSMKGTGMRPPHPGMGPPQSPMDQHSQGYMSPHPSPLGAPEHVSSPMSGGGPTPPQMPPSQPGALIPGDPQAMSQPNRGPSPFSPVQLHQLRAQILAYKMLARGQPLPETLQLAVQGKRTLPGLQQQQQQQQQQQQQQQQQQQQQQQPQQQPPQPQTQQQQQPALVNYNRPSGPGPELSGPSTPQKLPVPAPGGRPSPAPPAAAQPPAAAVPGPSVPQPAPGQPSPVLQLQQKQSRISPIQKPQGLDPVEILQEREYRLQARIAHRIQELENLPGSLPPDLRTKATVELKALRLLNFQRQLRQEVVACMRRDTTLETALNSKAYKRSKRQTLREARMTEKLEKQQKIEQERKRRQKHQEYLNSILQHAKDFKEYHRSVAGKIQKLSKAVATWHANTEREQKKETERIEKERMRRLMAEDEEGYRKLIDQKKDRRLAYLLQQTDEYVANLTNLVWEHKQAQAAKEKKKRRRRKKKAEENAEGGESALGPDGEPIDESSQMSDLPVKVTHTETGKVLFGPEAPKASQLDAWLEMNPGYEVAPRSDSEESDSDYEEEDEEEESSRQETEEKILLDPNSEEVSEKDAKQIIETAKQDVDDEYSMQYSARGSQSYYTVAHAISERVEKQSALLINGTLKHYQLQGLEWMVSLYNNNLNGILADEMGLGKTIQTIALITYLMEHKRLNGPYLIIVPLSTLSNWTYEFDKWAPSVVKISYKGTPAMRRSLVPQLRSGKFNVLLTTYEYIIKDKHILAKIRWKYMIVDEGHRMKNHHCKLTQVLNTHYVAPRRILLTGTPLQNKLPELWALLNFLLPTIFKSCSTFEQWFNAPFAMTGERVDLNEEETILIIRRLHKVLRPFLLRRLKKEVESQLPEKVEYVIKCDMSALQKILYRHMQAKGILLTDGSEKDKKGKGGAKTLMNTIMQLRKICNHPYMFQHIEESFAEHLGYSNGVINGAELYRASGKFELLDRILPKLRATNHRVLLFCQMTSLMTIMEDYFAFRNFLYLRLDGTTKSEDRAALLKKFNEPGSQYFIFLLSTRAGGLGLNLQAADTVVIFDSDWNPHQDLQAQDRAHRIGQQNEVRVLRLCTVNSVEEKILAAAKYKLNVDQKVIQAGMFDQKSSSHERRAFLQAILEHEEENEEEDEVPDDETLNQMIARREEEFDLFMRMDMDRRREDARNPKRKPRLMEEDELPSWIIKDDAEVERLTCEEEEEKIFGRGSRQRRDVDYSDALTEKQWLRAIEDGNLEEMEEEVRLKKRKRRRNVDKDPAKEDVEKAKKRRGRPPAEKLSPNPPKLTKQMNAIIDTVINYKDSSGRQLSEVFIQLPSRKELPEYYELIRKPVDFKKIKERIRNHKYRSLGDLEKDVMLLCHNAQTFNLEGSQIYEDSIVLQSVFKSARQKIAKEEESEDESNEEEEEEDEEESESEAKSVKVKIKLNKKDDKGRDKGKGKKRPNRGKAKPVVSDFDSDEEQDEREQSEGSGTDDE
Source text: as §1

TRIM33(PHD,BRD) = target: T6, TRIM33(PHD,BRD) (Homo sapiens, UniProt Q9UPN9); experiment: BROMOscan ligand-binding assay
T6 sequence (Q9UPN9 882-1087 limits assumed): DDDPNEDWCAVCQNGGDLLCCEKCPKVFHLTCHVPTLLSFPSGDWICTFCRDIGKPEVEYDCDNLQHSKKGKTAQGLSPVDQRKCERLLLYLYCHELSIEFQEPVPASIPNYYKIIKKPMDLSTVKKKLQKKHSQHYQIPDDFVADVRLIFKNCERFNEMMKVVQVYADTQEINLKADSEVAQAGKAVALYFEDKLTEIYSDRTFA
Source text: as §1

BRD4(2) = BRD4(2) (Homo sapiens, UniProt O60885); experiment: BROMOscan ligand-binding assay
Source text: as §1

PBRM1(5) = PBRM1(5) (Homo sapiens, UniProt Q86U86); experiment: BROMOscan ligand-binding assay
Sequence of PBRM1(5) (Q86U86 653-763 limits assumed): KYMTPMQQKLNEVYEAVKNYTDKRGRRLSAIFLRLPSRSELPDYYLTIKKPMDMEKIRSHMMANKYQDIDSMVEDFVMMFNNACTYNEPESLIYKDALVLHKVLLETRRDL
Source text: as §1

BRD3(1,2) = BRD3(1,2) (Homo sapiens, UniProt Q15059); experiment: BROMOscan ligand-binding assay
Sequence of BRD3(1,2) (Q15059 24-416 limits assumed): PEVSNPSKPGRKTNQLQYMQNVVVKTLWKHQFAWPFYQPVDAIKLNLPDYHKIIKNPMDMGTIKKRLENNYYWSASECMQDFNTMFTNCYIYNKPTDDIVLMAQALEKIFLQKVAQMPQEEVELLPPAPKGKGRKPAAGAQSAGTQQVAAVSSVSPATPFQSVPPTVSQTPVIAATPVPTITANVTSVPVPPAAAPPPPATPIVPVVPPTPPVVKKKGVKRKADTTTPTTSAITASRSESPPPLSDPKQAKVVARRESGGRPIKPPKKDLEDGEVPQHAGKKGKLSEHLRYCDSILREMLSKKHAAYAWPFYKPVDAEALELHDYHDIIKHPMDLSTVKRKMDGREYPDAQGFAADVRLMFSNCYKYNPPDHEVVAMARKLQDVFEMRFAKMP
Source text: as §1

BAZ2A = target: T7, BAZ2A (Homo sapiens, UniProt Q9UIF9); experiment: BROMOscan ligand-binding assay
T7 sequence (Q9UIF9 1793-1897 limits assumed): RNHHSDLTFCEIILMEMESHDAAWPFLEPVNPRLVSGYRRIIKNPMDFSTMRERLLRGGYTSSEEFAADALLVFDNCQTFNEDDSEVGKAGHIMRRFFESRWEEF
Source text: as §1

BRD2(2) = BRD2(2) (Homo sapiens, UniProt P25440); experiment: BROMOscan ligand-binding assay
Sequence of BRD2(2) (P25440 344-453 limits assumed): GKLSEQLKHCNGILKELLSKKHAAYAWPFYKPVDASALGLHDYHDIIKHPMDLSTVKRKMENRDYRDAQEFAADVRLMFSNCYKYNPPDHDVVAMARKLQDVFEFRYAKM
Source text: as §1

TAF1(2) = target: T8, TAF1(2) (Homo sapiens, UniProt P21675); experiment: BROMOscan ligand-binding assay
T8 sequence (P21675 1519-1628 limits assumed): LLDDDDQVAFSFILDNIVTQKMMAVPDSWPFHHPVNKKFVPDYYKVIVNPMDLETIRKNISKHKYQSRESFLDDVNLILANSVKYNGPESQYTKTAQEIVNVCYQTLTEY
Source text: as §1

BRD2(1,2) = BRD2(1,2) (Homo sapiens, UniProt P25440); experiment: BROMOscan ligand-binding assay
Sequence of BRD2(1,2) (P25440 71-455 limits assumed): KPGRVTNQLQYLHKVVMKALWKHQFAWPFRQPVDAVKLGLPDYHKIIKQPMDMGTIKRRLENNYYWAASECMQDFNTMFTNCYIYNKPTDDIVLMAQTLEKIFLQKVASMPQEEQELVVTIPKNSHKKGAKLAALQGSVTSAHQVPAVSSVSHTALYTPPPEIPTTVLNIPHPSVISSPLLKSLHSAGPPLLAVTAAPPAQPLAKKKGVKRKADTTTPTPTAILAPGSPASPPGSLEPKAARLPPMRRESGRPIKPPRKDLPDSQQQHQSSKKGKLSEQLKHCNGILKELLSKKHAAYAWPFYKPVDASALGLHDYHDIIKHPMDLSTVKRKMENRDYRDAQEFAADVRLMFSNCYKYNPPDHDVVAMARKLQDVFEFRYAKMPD
Source text: as §1

BRD2(1) = BRD2(1) (Homo sapiens, UniProt P25440); experiment: BROMOscan ligand-binding assay
Sequence of BRD2(1) (P25440 74-180 limits assumed): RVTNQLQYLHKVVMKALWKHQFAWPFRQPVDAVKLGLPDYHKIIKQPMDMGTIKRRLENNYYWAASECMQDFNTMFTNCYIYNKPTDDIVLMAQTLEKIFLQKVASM
Source text: as §1

CECR2 = CECR2 (Homo sapiens, UniProt Q9BXF3); experiment: BROMOscan ligand-binding assay
Sequence of CECR2 (Q9BXF3 434-538 limits assumed): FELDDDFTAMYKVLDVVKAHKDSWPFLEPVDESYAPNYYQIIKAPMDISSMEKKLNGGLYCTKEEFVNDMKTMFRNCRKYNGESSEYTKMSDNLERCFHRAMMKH
Source text: as §1

[1] = KD (BROMOscan), sheet prints no unit (nM)

Cc1c(NC(=O)c2cc(C(N)=O)nc3cc(F)ccc23)c(C(F)(F)F)nn1Cc1ccc(C(C)(C)C)cc1 [BAY-588]
inhibition at 10 µM (PRMT8): 3%
Tm (C) 10µM, temperature shift (BRPF1): -0.2 Kelvin

COc1cc(Cl)c(C(=O)N[C@@H](CN[C@H]2CC[C@@H](N)CC2)Cc2ccc(C#N)cc2)cc1-c1ccc(CN[C@H](C)c2ccc(C)cc2)o1 [BAY-850]
inhibition at 10 µM (PRMT8): 4%
Tm (C) 10µM, temperature shift (BRPF1): -2.2 Kelvin

Cc1c(NC(=O)c2cc(C(N)=O)nc3cc(F)ccc23)c(C(F)(F)F)nn1Cc1ccc(C#N)cc1 [BAY-876]
inhibition at 10 µM (PRMT8): 9%
Tm (C) 10µM, temperature shift (BRPF1): -0.3 Kelvin

CN1C[C@H](Nc2cnn(C)c(=O)c2Br)C[C@H](c2ccccc2)C1 [GSK4027]
inhibition at 10 µM (PRMT8): 15%
Tm (C) 10µM, temperature shift (BRPF1): -0.8 Kelvin

COc1ccccc1C(=O)Nc1cc2c(cc1N1CCNC[C@H]1C)n(C)c(=O)n2C [GSK6853]
MTases Inhibition (%) (PRMT8; 10µM): 3%

CO[C@H]1CNC[C@@H](OCC2CCC(F)(F)CC2)[C@@H]1Nc1ncc(-c2cncc(C)c2)c2cc(C)c(=O)[nH]c12 [GSK8814]
inhibition at 10 µM (PRMT8): 5%
Tm (C) 10µM, temperature shift (BRPF1): -0.2 Kelvin

CCC(=O)N1CCOc2c(cc(-c3ccc(OC)c(OC)c3)cc2OCC2CCCN(C)C2)C1 (stereo not drawn) [I-CBP112]
Kd (GCN5L2; [1]): > 30000 nM
Kd (GCN5L2; KD, GCN5L2): > 100000 nM
Kd (WDR9(2); KD, WDR9(2)): 59 µM
Kd (PCAF; KD, PCAF): 77 µM
Kd (ATAD2B; KD, BROMOscan Gene Symbol ATAD2B): 71 µM
Kd (BRD4(1,2)): 11 µM
Kd (EP300; KD, EP300): 0.12 µM
Kd (FALZ; KD, FALZ): 5.5 µM
Kd (PBRM1(2); [1]): > 30000 nM
Kd (PBRM1(2); KD, PBRM1(2)): > 100000 nM
Kd (BRD3(1); KD, BROMOscan Gene Symbol BRD3(1)): 5.4 µM
Kd (SMARCA2; [1]): > 30000 nM
Kd (SMARCA2; KD, SMARCA2): > 100000 nM
Kd (TRIM33(PHD,BRD); [1]): > 30000 nM
Kd (TRIM33(PHD,BRD); KD, TRIM33(PHD,Bromo.)): > 100000 nM
Kd (BRD4(2)): 16 µM
Kd (PBRM1(5); [1]): > 30000 nM
Kd (PBRM1(5); KD, PBRM1(5)): > 100000 nM
Kd (BRD3(1,2); KD, BROMOscan Gene Symbol BRD3(1,2)): 6.3 µM
Kd (BAZ2A): 70 µM
Kd (BRD2(2)): 26 µM
Kd (TAF1(2)): 45 µM
Kd (BRD2(1,2)): 6.9 µM
Tm (C) 10µM, temperature shift (BRPF1): -0.2 Kelvin
Kd (BRD2(1)): 5.7 µM
Kd (CECR2; KD, CECR2): 17 µM

Cc1nnc2c3ccccc3c(N[C@@H](C)[C@H](c3ccccc3)N(C)C)nn12 [L-Moses]
inhibition at 10 µM (PRMT8): 5%
Tm (C) 10µM, temperature shift (BRPF1): -2.7 Kelvin

CCCS(=O)(=O)c1nc(NC2CC2)cc(-c2ccc3c(ccn3C3CC(C)(C)NC(C)(C)C3)c2)n1 [NVS-CECR2-1]
Kd (GCN5L2): > 30000 nM
Kd (WDR9(2)): 30 µM
Kd (PCAF): > 30 µM
Kd (ATAD2B): > 30 µM
Kd (BRD4(1,2)): 12 µM
Kd (EP300): > 30 µM
Kd (FALZ): 0.36 µM
Kd (PBRM1(2)): > 30000 nM
Kd (BRD3(1)): > 30 µM
Kd (SMARCA2): > 30000 nM
Kd (TRIM33(PHD,BRD)): > 30000 nM
Kd (BRD4(2)): 5.7 µM
Kd (PBRM1(5)): > 30000 nM
Kd (BRD3(1,2)): > 30 µM
Kd (BAZ2A): > 30 µM
Kd (BRD2(2)): > 30 µM
Kd (TAF1(2)): 2.1 µM
Kd (BRD2(1,2)): 16 µM
Kd (BRD2(1)): > 30 µM
Kd (CECR2): 0.014 µM

O=C(C=CN1[C@H]2CC[C@@H]1c1ncnc(NC3CC3)c1C2)c1ccccc1O [PFI-3 D1]
Kd (GCN5L2; BROMOscan, GCN5L2): 23000 nM
Kd (WDR9(2); BROMOscan, WDR9(2)): > 30 µM
Kd (PCAF; BROMOscan, PCAF): > 30 µM
Kd (ATAD2B; BROMOscan, ATAD2B): > 30 µM
Kd (BRD4(1,2); BROMOscan, BRD4(1,2)): > 30 µM
Kd (EP300; BROMOscan, EP300): > 30 µM
Kd (FALZ; BROMOscan, FALZ): > 30 µM
Kd (PBRM1(2); BROMOscan, PBRM1(2)): 170 nM
Kd (BRD3(1); BROMOscan, BRD3(1)): > 30 µM
Kd (SMARCA2; BROMOscan, SMARCA2): 49 nM
Kd (TRIM33(PHD,BRD); BROMOscan, TRIM33(PHD,Bromo.)): > 30000 nM
Kd (BRD4(2); BROMOscan, BRD4(2)): > 30 µM
Kd (PBRM1(5); BROMOscan, PBRM1(5)): 36 nM
Kd (BRD3(1,2); BROMOscan, BRD3(1,2)): > 30 µM
Kd (BAZ2A; BROMOscan, BAZ2A): > 30 µM
Kd (BRD2(2); BROMOscan, BRD2(2)): > 30 µM
Kd (TAF1(2); BROMOscan, TAF1(2)): > 30 µM
Kd (BRD2(1,2); BROMOscan, BRD2(1,2)): > 30 µM
Kd (BRD2(1); BROMOscan, BRD2(1)): > 30 µM
Kd (CECR2; BROMOscan, CECR2): > 30 µM

CN(C)CCCOc1ccc(-c2cc(NCCCn3cccn3)nc(S(C)(=O)=O)n2)cc1 [TP-238]
inhibition at 10 µM (PRMT8): 3%
Tm (C) 10µM, temperature shift (BRPF1): -0.3 Kelvin
